From publication PMC10253357, “Acceptors and Effectors Alter Substrate Inhibition Kinetics of a Plant Glucosyltransferase NbUGT72AY1 and Its Mutants” (International Journal of Molecular Sciences, 2023) come the findings set out here.

The target in data set [1] is T1, NbUGT72AY1 (Nicotiana benthamiana, UniProt A0A8K1ZRH3).
T1 construct: pGEX-4T-1 vector (GST fusion expected), expressed in E. coli BL21(DE3) pLysS
T1 sequence (A0A8K1ZRH3 1-477): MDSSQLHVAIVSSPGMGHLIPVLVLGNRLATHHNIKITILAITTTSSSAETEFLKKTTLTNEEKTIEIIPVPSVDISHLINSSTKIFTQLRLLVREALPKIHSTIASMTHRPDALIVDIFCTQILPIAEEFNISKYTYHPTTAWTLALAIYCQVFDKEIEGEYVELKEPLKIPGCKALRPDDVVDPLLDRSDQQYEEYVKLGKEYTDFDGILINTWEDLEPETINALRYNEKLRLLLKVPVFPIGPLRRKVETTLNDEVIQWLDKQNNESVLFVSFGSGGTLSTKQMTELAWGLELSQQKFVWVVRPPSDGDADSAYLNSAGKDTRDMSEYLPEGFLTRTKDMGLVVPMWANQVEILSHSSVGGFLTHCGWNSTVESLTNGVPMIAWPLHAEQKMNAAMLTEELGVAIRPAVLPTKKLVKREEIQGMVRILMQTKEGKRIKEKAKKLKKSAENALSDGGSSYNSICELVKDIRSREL
Kind of data set: UDP-Glo glucosyltransferase assay, UDP release. It is filed as biochemical. Conditions: UDP-glucose donor, Tris pH 7.5, 40 °C.

Data set [2] concerns the target T1, NbUGT72AY1. The experiment in a line: UDP-Glo glucosyltransferase assay, UDP release. The class given is biochemical. As to conditions: UDP-glucose donor; Tris pH 7.5, 40 °C; fit with substrate inhibition and Hill coefficients.
For data set [3], the target named is T1, NbUGT72AY1. Kind of data set: UDP-Glo assay with vanillin, effector added. The class given is biochemical. As to conditions: vanillin acceptor, UDP-glucose donor, Tris pH 7.5, 40 °C.
In data set [4] the target is T2, chimera A.
T2 construct: gene UGT72AY1; NbUGT72AY1 (MT945401) with a segment of StUGT72AY2 from Solanum tuberosum; pGEX-4T-1, E. coli
Kind of data set: UDP-Glo glucosyltransferase assay, UDP release. As to conditions: substrate inhibition constant, uncompetitive model with Hill coefficients; UDP-glucose donor; Tris pH 7.5, 40 °C. The class given is biochemical, Nicotiana benthamiana.

Substrate in data set [5]: Oc1ccc(O)cc1
The experiment in a line: UDP-Glo glucosyltransferase assay, UDP release. It is filed as biochemical, Nicotiana benthamiana. As to conditions: UDP-glucose donor, Tris pH 7.5, 40 °C, Michaelis-Menten, no substrate inhibition.

Substrate in data set [6]: O=c1c(O)c(-c2ccc(O)cc2)oc2cc(O)cc(O)c12
The experiment in a line: UDP-Glo glucosyltransferase assay, UDP release. The class given is biochemical, Nicotiana benthamiana. As to conditions: UDP-glucose donor, Tris pH 7.5, 40 °C, two products (3-O- and 7-O-glucoside).

Substrate in data set [7]: COc1ccccc1O
Kind of data set: UDP-Glo glucosyltransferase assay, UDP release. The class given is biochemical, Nicotiana benthamiana. Conditions: UDP-glucose donor, Tris pH 7.5, 40 °C, fit with substrate inhibition and Hill coefficients.

[8] abbreviates: substrate inhibition constant, uncompetitive model with Hill coefficients.
The mark [9] stands for this setting: substrate inhibition constant, complete (Vi = 0), uncompetitive model with Hill coefficients.

`COc1cc(C=O)ccc1O` [vanillin] yielded a Ki in data set [1] (substrate inhibition constant, partial uncompetitive model with Hill coefficients (n = 1, x = 2), no effector) of 117 ± 24 µM. `CCc1ccc(O)c(OC)c1` [ethylguaiacol] came in with a Ki in data set [1] (setting [8]) of 345 ± 58 µM. As to `Cc1ccccc1O` [o-cresol], in data set [1] (setting [9]), the Ki came out at 1368 ± 165 µM. Moreover, in data set [2], the Km is 17 ± 9 µM.

On to `CCCCCCCCCCCCCCCCCC(=O)O` [stearic acid], for which the “UDP-Glo assay with vanillin, effector added” value (“UDP-Glo assay with vanillin” below) in data set [3] (effector at 20 and 100 µM) is reported as “Saturated stearic acid promoted the glycosylation activity of NbUGT72AY1 with vanillin”. As for `CC1=CCCC(C)(C)C1/C=C/C(C)O` (stereo not drawn) [α-ionol], the “UDP-Glo assay with vanillin” value in data set [3] (effector at 100 and 200 µM) is “addition of α- and β-ionol to the reaction resulted in a concentration-dependent increase in Ki”. Turning to `COc1cc(/C=C/C=O)cc(OC)c1O` [sinapaldehyde], the values for the Ki in data set [1] (setting [9]) and in data set [4] were 1398 ± 283 µM and 1437 ± 138 µM, respectively.

For the molecule `CCCCCCCC/C=C\CCCCCCCC(=O)O` [oleic acid], the “UDP-Glo assay with vanillin” value in data set [3] (effector at 20 and 100 µM) is “increased catalytic activity of NbUGT72AY1, noted after addition of stearic and oleic acid”. Regarding `C=CCc1ccc(O)c(OC)c1` [eugenol], the Ki in data set [1] (setting [8]) is listed as 62 ± 17 µM. In the case of `COc1cc2ccc(=O)oc2cc1O` [scopoletin], the Ki in data set [1] (substrate inhibition constant (partial uncompetitive model with Hill coefficients)) came out at 16 ± 1 µM.

`COc1ccccc1O` [guaiacol] showed a Ki in data set [1] (setting [9]) of 1022 ± 69 µM. In the case of `CC1=C(/C=C/C(C)O)C(C)(C)CCC1` (stereo not drawn) [β-ionol], the “UDP-Glo assay with vanillin” value in data set [3] (effector at 100 and 200 µM) is “addition of α- and β-ionol to the reaction resulted in a concentration-dependent increase in Ki”.

B1: NbUGT72AY1 (Nicotiana benthamiana) (protein)
chain: MDSSQLHVAIVSSPGMGHLIPVLVLGNRLATHHNIKITILAITTTSSSAETEFLKKTTLTNEEKTIEIIPVPSVDISHLINSSTKIFTQLRLLVREALPKIHSTIASMTHRPDALIVDIFCTQILPIAEEFNISKYTYHPTTAWTLALAIYCQVFDKEIEGEYVELKEPLKIPGCKALRPDDVVDPLLDRSDQQYEEYVKLGKEYTDFDGILINTWEDLEPETINALRYNEKLRLLLKVPVFPIGPLRRKVETTLNDEVIQWLDKQNNESVLFVSFGSGGTLSTKQMTELAWGLELSQQKFVWVVRPPSDGDADSAYLNSAGKDTRDMSEYLPEGFLTRTKDMGLVVPMWANQVEILSHSSVGGFLTHCGWNSTVESLTNGVPMIAWPLHAEQKMNAAMLTEELGVAIRPAVLPTKKLVKREEIQGMVRILMQTKEGKRIKEKAKKLKKSAENALSDGGSSYNSICELVKDIRSREL
notes: pGEX-4T-1 vector (GST fusion expected), expressed in E. coli BL21(DE3) pLysS
For B1, the results for the Km in data set [5], in data set [6] and in data set [7] were 331 ± 25 µM, 15 ± 3 µM and 179 ± 44 µM, respectively.
